Data: US11707557B2, “Compositions and devices incorporating water-insoluble therapeutic agents and methods of the use thereof” (COOK MEDICAL TECHNOLOGIES LLC, priority 2014, dated 2023)
≈ marks a conversion by molar mass, not a printed value.

Experiments:
[1] = Drug concentrations obtained using EGCG at 50 mg per ml (microscopic check for particulates); type: physicochemical
Method: EGCG at 50 mg/ml and drug at approximately 250 micrograms per ml were dissolved in the listed solvent and dried down in a test tube under nitrogen. 1 ml of water was added, followed by vortexing. The solutions were examined for particulate matter under a microscope. If no particulates were present, the process was repeated with a higher drug amount. All the tested drugs remained in solution at the listed concentrations except for nystatin and hesperidin.

Caco2 cells = test: Transport of curcumin through Caco2 cells (transwell); type: in vitro ADME, human; conditions: 3 hours
Source text: Caco2 cells are continuous cells of human epithelial colorectal adenocarcinoma cells. They contain drug efflux proteins and may be used in the same way that MDCK-MDR cells are, i.e. to measure drug accumulation in cells that have the ability to efflux drugs.
Caco2 cells (ATCC, VA, USA) are proliferating gut epithelial cells used throughout the pharmaceutical sciences as a model of oral drug availability. These cells may be grown in cell culture on membranes where they align with an apical external surface (equivalent to the gut lumen) and a basolateral lower surface that is equivalent to the cell side adjacent to the blood capillaries. When an EGCG curcumin solution was placed in the upper portion of a transwell containing these cells on a membrane for three hours, large amounts of curcumin either passed through or accumulated within the caco2 cells.
Caco2 cells were seeded onto 0.3 um transwell membranes and left to grow to confluence for 3 days. A conductivity electrode measured the Transcellular electrical resistance value over the next few days and when it had reached […] (tight junctions established) the experiment began. A solution of curcumin (250 microgram per ml) in EGCG (25 mg per ml) in Hanks buffer pH 7.4. was added to the top well for 3 hours. […] All solutions were then analyzed for curcumin content using uv-vis absorbance spectroscopy at 430 nm.

[2] = Drug in EGCG or tannic acid films (optical microscopy, DSC); type: physicochemical
Method: Thin films of drugs were cast in either EGCG or tannic acid from ethanol solutions. Drugs in either EGCG or tannic acid were dissolved in ethanol at a final total concentration of 20% w/v and spot pipetted in repeated 10 microliter volumes and allowed to dry between spotting. This allowed a thin film to accumulate and dry. Some solutions contained either glycerol or polyethylene glycol 300 at 10% or 20% w/w to EGCG or tannic acid. The films were allowed to dry and examined by optical microscopy for drug precipitation. Films were allow analyzed by differential scanning calorimetry (DSC) for identify drug crystals.

pig skin = test system: pig skin
Method: Various gallate-containing drug formulations were prepared and applied to ex vivo pig skin samples. Fresh pig skin was obtained from a local butcher, processed within three hours and then frozen. For experiments, the skin was slowly thawed, excess fat removed from the base, and cut into 1×2 cm squares. These squares were mounted and clamped on Franz diffusion cells, which kept the tissue moist and isolated and exposed a 6 mm diameter of the upper skin surface for the application of a drug loaded formulation. Skin samples were then frozen and later cryosectioned in 50 μm slices. The drug in the slices was extracted and measured by HPLC or radioactive doping methods. A drug depth profile was then established for each drug.
1. Formulations containing a drug and a gallate. The drugs were dissolved in ethanol at various concentrations along with either EGCG or TA (500 mg/mL). Each solution was pipetted into 6×5 mm diameter aluminum cups (approximately 3 mm in height) by filling and allowing the ethanol to evaporate at 50° C. until all the solution was used up (80 mg per cup).
2. Formulations containing a drug, propylene glycol (“PG”) and a gallate. 300 mg of propylene glycol was mixed with 200 mg of EGCG or TA until dissolved. Various amounts of drug were added to this mixture and dissolved. 80 mg of the resulting viscous solution was weighed into 6×5 mm aluminum cups.
3. Control Formulations. Control formulations were prepared using Glaxal base and Plogel. Glaxal base is a cream used by compounding pharmacists to manufacture topical formulations of drugs. Plogel is an alternative used for dermal formulations. […] Drug was added to a known weight of Glaxal or Plogel and levigated to produce a standard drug dispersion. These formulations were prepared the evening before the experiment. For some drugs, radioactive drug (where available) was also added as a doping additive to facilitate quantitation in tissues.
Eutectics: In some cases, gallate containing compounds and drugs were formulated in eutectic mixtures. These included a 60:40 (% w/w) mixture of menthol with ibuprofen. These agents acted as a carrier for retinoic acid, which was then dissolved in this liquid. The 3-drug eutectic/solution was then blended into the CMC/poloxamer emulsion containing EGCG (2.5%). […] The emulsion was stabilized with poloxamer.
Example 29. Pig skin studies. Aluminum cups containing drug formulations were inverted on top of the pig skin in the Franz diffusion cell so that the formulation contents were in contact with the skin. […]
Analysis. […] The amount of drug in each group of skin sections was then determined using HPLC methods, or by radioactivity counting on a liquid scintillation counter. The amount of drug in each group of skin sections was expressed as μg/g or mg/g of tissue.

[3] = Drug release from injectable PG:gallate pastes (60:40) into PBS; type: physicochemical; conditions: 60:40 PG:EGCG or PG:tannic acid, 2% w/w drug, PBS pH 7.4, 37° C.
Method: Methods: 60:40% w/w PG:EGCG or PG:tannic acid was used in these studies. 588 mg of propylene glycol was weighed into a 20 mL glass vials and 392 of EGCG or tannic acid was added followed by vortexing to distribute and dissolve the gallates. The vials were warmed to 60° C. and vortexed until all the contents were in solution. At this time 20 mg of drug was added (2% w/w) and vortexed until in solution. The following drugs were used: paclitaxel, docetaxel, retinoic acid, amphotericin B, and curcumin. 100 mg of each paste was weighed into the base of a 15 mL glass test tube and 10 mL of phosphate buffered saline was added at pH 7.4 and the tubes were incubated at 37° C. for certain times. All 10 mL of the PBS release media was removed and 1 mL analyzed by HPLC for drug content. 10 mL of fresh PBS was then added to all tubes

[4] = 24 h
Method: (§1) PBS (EGCG) or water (tannic acid) was added and the final solution filtered through a 0.22 micron filter to remove any particulates. The solutions were analyzed for drug concentration using HPLC.
(§2) PBS (EGCG) or water (tannic acid) was added and the final solution filtered through a 0.22 micron filter to remove particulates. The solution was then analyzed for drug concentration using absorbance spectroscopy at 450 nm.
(§3) PBS (EGCG) or water (tannic acid) was added and the final solution was filtered through a 0.22 micron filter to remove any particulates and the solution was analyzed for drug concentration using HPLC.
(§4) PBS (EGCG) or water (tannic acid) was added and the final solution filtered through a 0.22 micron filter to remove any particulates and the solution was analyzed for drug concentration using HPLC.
(§5) PBS (EGCG) or water (Tannic acid) was added and the final solution was filtered through a 0.22 um filter to remove any particulates and the solution was analyzed for drug concentration using HPLC.
(§6) Method: drug and EGCG or tannic acid were dried down from acetonitrile (or methanol for tannic acid) solutions at various drug to EGCG or tannic acid ratios. PBS (EGCG) or water (Tannic acid pH adjusted to 7) was added and the final solution was filtered through a 0.22 um filter to remove any particulates and the solution was analyzed for drug concentration using HPLC methods.

Method for physchem: as §1, §2, §3, §4, §5, §6

COc1cc(/C=C/C(=O)CC(=O)/C=C/c2ccc(O)c(OC)c2)ccc1O [curcumin]
Visual appearance [1]: clear | Drug Concentration ([1]; 1 ml of water): 250 microgram/ml | Particulates present ([1]; under a microscope): no | curcumin uptake and transport through the cells (Caco2 cells; curcumin 250 microgram per ml in EGCG 25 mg per ml, versus diblock copolymer): much higher levels | curcumin passing through and entering the cells (Caco2 cells; diblock copolymer micellar solution, 250 micrograms/ml): small amount | drug loading at which drug precipitated out of film [2]: approximately 5 % w/w | drug uptake by pig skin (pig skin): essentially no drug uptake | drug release from PG:gallate paste [3]: relatively controlled release of the drug over 24 hours | stability of EGCG solutions of the drug [4]: stable for 24 hours | stability of tannic acid solutions of the drug [4]: stable for 24 hours | solubility (physchem; aqueous with cosolvent or surfactant or cyclodextrin, thermodynamic from solid, drug concentration solubilised at maximum EGCG concentration): ~4700 µg/mL (≈ 12.8 mM) | solubility (physchem; aqueous with cosolvent or surfactant or cyclodextrin, thermodynamic from solid, drug concentration solubilised at maximum tannic acid concentration): ~12000 µg/mL (≈ 32.6 mM) | solubility (physchem; water, free solubility in water): < 1 µg/mL
